{"source": "patent US9290789B2", "about": "“Method for measuring cells, and reagent for cell measurement” (HITACHI HIGH-TECHNOLOGIES CORPORATION, priority 2011, dated 2016)", "key": {"ATPase": {"test_system": "ATPase", "assay": "Residual ATPase activity according to methanol concentrations", "format": "biochemical", "conditions": "37° C. for 30 minutes", "method": "10 μL of an ATPase-containing ATP elimination solution (Kikkoman Biochemifa Company, ATP elimination reagent included with a Lucifer HS set) was mixed with 80 μL of methanol, the concentration of which had been adjusted. An ATP solution (2×10^6 amol/10 μL) was added to the solution and then it was left to stand at 37° C. for 30 minutes. In addition, the final methanol concentrations were adjusted to 0.1 to 80 (v/v) %.\nTo measure the remaining ATP level after the addition of the above mixture to a luminescent reagent, the mixture was diluted in water to a methanol concentration of 0.1 (v/v) % or less, assuring that the methanol would not affect the ATP luminescent reaction (Reference Example 2, Table 2). Subsequently, 50 μL of the diluted solution (1×10^3 amol ATP/50 μL) was added to 50 μL of the luminescent reagent, and then the luminescence level was measured. Furthermore, an ATP solution (1×10^3 amol/50 μL) to which no ATPase had been added was prepared. The luminescence level according to the ATP solution was also measured. The luminescence level of the ATPase-free ATP solution was considered almost the same as that of an ATP solution to which ATP had been added after the loss of ATPase activity."}, "[1]": {"test_system": "ATP•luciferase•luciferin reaction", "assay": "Effect of methanol on ATP luminescent reaction", "format": "biochemical", "conditions": "1000 amol ATP/50 μL; for Relative luminescence: methanol-free ATP solution = 100", "method": "1 mL of an ATP solution (2×10^5 amol ATP/mL, Kikkoman Biochemifa Company Lucifer ATP standard reagent set) was mixed with 10 μl to 5 mL of 100% methanol (Wako Pure Chemical Industries, Ltd.). Water (Invitrogen) was further added to each solution, and thus ATP/methanol solutions (10 mL each) with final methanol concentrations ranging from 0.1 to 50 (v/v) % were prepared (ATP concentration: 2×10^4 amol ATP/mL). Subsequently, 50 μL of the ATP/methanol solution and 50 μL of a luminescent reagent (Kikkoman Biochemifa Company, included with a Lucifer HS set) were mixed to cause a luminescent reaction to take place. The resulting luminescence levels were measured by photocounting using a photomultiplier.\nFor comparison, 1 mL of a methanol-free ATP solution (2×10^4 amol ATP/mL) was prepared. Subsequently, 50 μL of an ATP solution and 50 μL of the luminescent reagent were mixed to cause a luminescent reaction to take place, and then the luminescence level was measured."}, "[2]": {"test_system": "Methylobacterium extorquens", "assay": "Intracellular ATP level by ATP luminescence method", "format": "cell-based", "method": "An M. extorquens cell suspension was prepared according to the following procedures. M. extorquens was cultured with agitation in 5 mL of SCD liquid medium (Nissui Pharmaceutical Co., Ltd.) for 72 hours at 25° C. The culture solution (medium) was dispensed into tubes, and then centrifuged for 10 minutes at 10000 rpm, so as to collect cells onto the tube bottoms. Supernatant was removed, and then water was added instead, to suspend cells. Centrifugation was performed again for 10 minutes at 10000 rpm, so as to collect cells onto the tube bottoms. This step was repeated 3 times, medium components were removed, and thus a cell suspension was prepared. Subsequently, the cells were cultured with agitation in water for injection for 3 days at 37° C., so that a cell suspension for ATP luminescence measurement was prepared. […]\nReagents included in a Lucifer HS set (Kikkoman Biochemifa Company) were used as reagents for ATP luminescence measurement. In addition, the Lucifer HS set comprises an ATP elimination enzyme, an ATP extraction reagent, and a luminescent reagent included therewith. […]\n100 μL of an ATP extraction solution was added to 100 μL of the mixture after heating. 50 μL of each sample after ATP extraction was added to 50 μL of the luminescent reagent. The thus generated luminescence was measured.\n10 μL each of glucose (Wako Pure Chemical Industries, Ltd.), alanine (Wako Pure Chemical Industries, Ltd.), ATPase, 10% methanol, and a phosphate buffer (pH 7.4) (Invitrogen) were added to 50 μL of the M. extorquens cell suspension, thereby preparing a total of 100 μL of a mixture. When glucose, alanine, and methanol were not added, the solution was adjusted to a total 100 μL volume with a phosphate buffer (Table 3, sample Nos. 1 to 5). The mixture was heated at 37° C. for 30 minutes. In the extracellular ATP removal•intracellular ATP increase step (for removing ATP outside of viable cells and increasing ATP within viable cells), 100 μL of an ATP extraction solution was added to 100 μL of the mixture (Table 3, sample Nos. 1 to 4). For comparison of the ATP extraction efficiency of methanol, in the ATP extraction step, 100 μL, of the mixture was mixed with 100 μL of a 1% methanol-containing ATP extraction solution (Table 3, sample No. 5). After ATP extraction, 50 μL of the sample was added to 50 μL of the luminescent reagent, and then the thus generated luminescence was measured. […]\n10 μL each of glucose, alanine, ATPase, and if necessary, 10 (v/v) % methanol were added to 50 μL of the M. extorquens cell suspension. Finally, a phosphate buffer (pH 7.4) (Invitrogen) was added for adjustment to a total 100 μL volume. The final concentrations of glucose and alanine ranged from 0.1 mM to 100 mM, and the final concentrations of ATPase and methanol were 10 (v/v) % and 1 (v/v) %, respectively. Each mixture was heated at 37° C. for 30 minutes. 100 μL of an ATP extraction solution was added to 100 μL of the heated mixture, and then 50 μL of sample after ATP extraction was added to 50 μL of a luminescent reagent. The thus generated luminescence was measured.\n10 μL each of glucose, alanine, ATPase, and methanol were added to 50 μL of the M. extorquens cell suspension. Finally, a phosphate buffer (pH 7.4) (Invitrogen) was added for adjustment to a total 100 μL volume. The final concentrations of glucose and alanine were each 0.1 mM, the final ATPase concentration was 10 (v/v) %, and the final methanol concentrations ranged from 0% to 80%. Each mixture was heated at 37° C. for 30 minutes. After heating, to remove methanol-containing mixtures, all mixtures were subjected to centrifugal filtration (1 min, 2000 rpm) using Ultrafree-MC, and then mixtures as filtrates were discarded. Subsequently, 200 μL of water was added onto the filter and filtrated to wash the filter. In addition, washing was repeated 5 times. […]"}, "Staphylococcus aureus": {"test_system": "Staphylococcus aureus", "assay": "Cell viability (colony count) after methanol exposure", "format": "cell-based", "conditions": "maximum of 30 (v/v) % methanol, 1 minute; colony count at 0% methanol = 100%", "method": "(§1) 10 μL of a cell suspension and 90 μL of methanol, the concentration of which had been adjusted, were mixed, thereby preparing 100 μL of a cell/methanol suspension. The final methanol concentrations ranged from 0 to 80 (v/v) %. As microorganisms (cells), Bacillus subtilis (bacterium, spores, ATCC 6633), Staphylococcus aureus (bacterium, aerobic, ATCC 6538), and Candida albicans (fungus, yeast, ATCC 10231) were used. Each cell suspension was mixed with methanol and then the mixture was left to stand for 1 minute. In the case of bacteria, the mixture was applied and spread over R2A medium (Nissui Pharmaceutical Co., Ltd.) and then cultured at 25° C. for 7 days. In the case of fungi, the mixture was applied and spread over PDA medium (Nissui Pharmaceutical Co., Ltd.) and then cultured at 25° C. for 5 days. After culture, the colony count was then measured according to each methanol concentration. The colony count in the case of 0% methanol was designated as 100% cell viability. Cell viability according to each methanol concentration was examined."}, "Candida albicans": {"test_system": "Candida albicans", "assay": "Cell viability (colony count) after methanol exposure", "format": "cell-based", "conditions": "maximum of 30 (v/v) % methanol, 1 minute; colony count at 0% methanol = 100%", "method": "as §1"}, "Bacillus subtilis": {"test_system": "Bacillus subtilis", "assay": "Cell viability (colony count) after methanol exposure", "format": "cell-based", "conditions": "80 (v/v) % methanol, 1 minute; colony count at 0% methanol = 100%", "method": "as §1"}}, "data": [{"molecule": "CO", "note": "[Methanol, methanol]", "values": [{"measurement": "Residual ATPase activity", "setting": "ATPase; methanol concentration 80 (v/v) %", "value": 20, "unit": "%"}, {"measurement": "Residual ATPase activity", "setting": "ATPase; methanol concentrations 0 to 50 (v/v) %", "value": "retained the activity"}, {"measurement": "Luminescence level", "setting": "[1]; 0.1% Methanol", "value": 12703, "unit": "CPS"}, {"measurement": "Relative luminescence", "setting": "[1]; 0.1% Methanol", "value": 110, "unit": "%"}, {"measurement": "Luminescence level", "setting": "[1]; 1% Methanol", "value": 10200, "unit": "CPS"}, {"measurement": "Relative luminescence", "setting": "[1]; 1% Methanol", "value": 88, "unit": "%"}, {"measurement": "Luminescence level", "setting": "[1]; 10% Methanol", "value": 3345, "unit": "CPS"}, {"measurement": "Relative luminescence", "setting": "[1]; 10% Methanol", "value": 29, "unit": "%"}, {"measurement": "Luminescence level", "setting": "[1]; 50% Methanol", "value": 13, "unit": "CPS"}, {"measurement": "Luminescence level", "setting": "[1]; 50% Methanol, listed as methanol", "value": "almost no fluorescence"}, {"measurement": "Relative luminescence", "setting": "[1]; 50% Methanol", "value": 0, "unit": "%"}, {"measurement": "Intracellular ATP level of M. extorquens", "setting": "[2]; 1% methanol added to 0.1 mM alanine and 0.1 mM glucose (FIG. 4C)", "value": 1.2, "unit": "amol/CFU"}, {"measurement": "Intracellular ATP level of M. extorquens, % of the maximum", "setting": "[2]; methanol 0.1% to 20%, 0.1 mM glucose, 0.1 mM alanine, 10% ATPase, filtration", "value": "≥ 70", "unit": "%"}, {"measurement": "Intracellular ATP level of M. extorquens", "setting": "[2]; methanol 0.1% to 20%, 0.1 mM glucose, 0.1 mM alanine, 10% ATPase, filtration (FIGS. 5A and B)", "value": 1.1, "unit": "amol/CFU"}, {"measurement": "Intracellular ATP level of M. extorquens", "setting": "[2]; methanol 0.5%, 0.1 mM glucose, 0.1 mM alanine, 10% ATPase, filtration (FIG. 5A)", "value": 1.5, "unit": "amol/CFU"}, {"measurement": "Intracellular ATP level of M. extorquens", "setting": "[2]; methanol 30% or more, 0.1 mM glucose, 0.1 mM alanine, 10% ATPase, filtration (FIG. 5B)", "value": 0.15, "unit": "amol/CFU"}, {"measurement": "Decrease of intracellular ATP level of M. extorquens", "setting": "[2]; methanol 30% or more, relative to the maximum at 0.5% methanol", "value": 90, "unit": "%"}, {"measurement": "Cell viability of S. aureus", "setting": "Staphylococcus aureus", "value": "≥ 90", "unit": "%"}, {"measurement": "Cell viability of C. albicans", "setting": "Candida albicans", "value": "≥ 90", "unit": "%"}, {"measurement": "Cell viability of B. subtilis", "setting": "Bacillus subtilis", "value": 100, "unit": "%"}]}, {"molecule": "C[C@H](N)C(=O)O", "note": "[alanine]", "values": [{"measurement": "Intracellular ATP level of M. extorquens", "setting": "[2]; alanine 1 mM or less in the presence of 1 (v/v) % methanol and 100 mM glucose (FIG. 4A)", "value": 0.9, "unit": "amol/CFU"}]}, {"molecule": "O=C[C@H](O)[C@@H](O)[C@H](O)[C@H](O)CO", "note": "[glucose]", "values": [{"measurement": "Intracellular ATP level of M. extorquens", "setting": "[2]; glucose varied 0.1 mM to 100 mM in the presence of 1 (v/v) % methanol and 50 mM alanine (FIG. 4B)", "value": "about 0.5 amol/CFU"}]}]}
